How the values were obtained:
[1] = system: HEK293 cells with BLTR and ALXR (stable transfectants); experiment: Cytosensor microphysiometry of extracellular acidification rate (EAR) in HEK293 cells with BLTR and ALXR; type: cell-based, human; details: LXA4 1 μM 20 min prior to LTB4 1 μM
Protocol: (§1) Cloning and functional expression of hBLTR. Total RNA was isolated from retinoic acid differentiated HL-60 cells using TriZol reagent (GIBCO BRL, Grand Island, N.Y.) and reverse-transcribed for 30 min at 50° C. followed by 40 cycles of polymerase chain reactions (PCR) using Vent DNA polymerase (New England BioLabs, Beverly, Mass.) (98° C. for 1 min, 60° C. for 1 min and 72° C. for 2 min) with specific primers for hBLTR (BLTR-N: 5′[…]-3′ and BLTR-C: 5′[…]-3′) (Fiore, S., Romano, M., Reardon, E. M. and Serhan, C. N. 1993. Induction of functional lipoxin A4 receptors in HL-60 cells. Blood 81: 3395-3403). HBLTR cDNA was inserted into pGL vector (Promega) at HindII-PpuMI site downstream of CD11b promoter. HEK293 cells were transfected with this pGL-CD11b-hBLTR construct using SuperFect reagent (Qiagen, Chatsworth, Calif.). Ligand binding and intracellular Ca^2+ release were carried out as in refs. (Yokomizo, T., Izumi, T., Chang, K., Takuwa, Y. and Shimizu, T. 1997. A G-protein-coupled receptor for leukotriene B4 that mediates chemotaxis. Nature 387: 620-624) and (Ng, C. F., Sun, F. F., Taylor, B. M., Wolin, M. S. and Wong, P. Y. 1991. Functional properties of guinea pig eosinophil leukotriene B4receptors. J. Immunol. 147: 3096-3103), respectively. […]

BLTR [2] = molecular target: T1, BLTR (Homo sapiens, UniProt Q15722); experiment: Displacement of specific [3H]-LTB4 binding in HEK293 cells stably transfected with BLTR; set-up: expressed in transfected cells
T1 sequence (Q15722 whole entry): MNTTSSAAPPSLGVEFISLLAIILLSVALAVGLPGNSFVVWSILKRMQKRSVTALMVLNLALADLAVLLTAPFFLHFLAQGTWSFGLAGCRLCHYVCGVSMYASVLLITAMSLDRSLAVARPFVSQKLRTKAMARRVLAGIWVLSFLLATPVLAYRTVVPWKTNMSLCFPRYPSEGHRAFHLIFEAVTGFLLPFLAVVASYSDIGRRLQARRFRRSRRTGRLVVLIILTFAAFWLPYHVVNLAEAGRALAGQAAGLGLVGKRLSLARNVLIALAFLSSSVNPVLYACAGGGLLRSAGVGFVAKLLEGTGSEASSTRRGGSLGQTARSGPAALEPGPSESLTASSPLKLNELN
Protocol: as §1

[3] = system: PMN infiltration into lungs; experiment: Hind limb ischemia-reperfusion induced second organ injury (lung PMN infiltration by MPO); type: in vivo, mouse; details: hBLTR transgenic mice
Text: Hind limb ischemia-reperfusion induced second organ injury. Mice were anesthetized and ATL analog 15-epi-16-para-fluoro-phenoxy-LXA4 (15(R)-16-para-fluoro-phenoxy-17,18,19,20-tetranol-LXA4 methyl ester), prepared as in (Takano, T., Clish, C. B., Gronert, K., Petasis, N. A. and Serhan C. N. 1997. Neutrophil-mediated changes in vascular permeability are inhibited by topical application of aspirin-triggered 15-epi-lipoxin A4 and novel lipoxin B4 stable analogues. J. Clin. Invest. 101: 819-826) or vehicle was administered intravenously to the transgenic mice. Approximately five minutes later, a tourniquet was placed proximally around each hind limb and secured with a metal clamp (Goldman, G., Welboum, R., Klausner, J. M., Kobzik, L., Valeri, C. R. et al. 1992. Mast cells and leukotrienes mediate neutrophil sequestration and lung edema after remote ischemia in rodents. Surgery 112: 578-586). Vascular occlusion was verified by engorgement and discoloration of the feet. After 3 hours of ischemia, the tourniquets were removed and followed by 3 hours of reperfusion. […] The left lungs were harvested, homogenized in 1.5 ml of potassium phosphate buffer (pH 7.4) and then centrifuged at 14,000 rpm (5 min). […]

[4] = system: PMN infiltration into ear skin; experiment: Ear skin inflammation model (topical application, PMN infiltration by MPO); type: in vivo, mouse; details: for increase in PMN infiltration into skin compared to vehicle control: LTB4 1 μg topical to ear, MPO; for percent inhibition of LTB4-induced PMN infiltration: 10 μg topical 5 min before LTB4 1 μg
Protocol: Ear skin inflammation model. hBLTR transgenic and wt mice were anesthetized and 16-phenoxyl-LXA4 (15(S)-16-phenoxy-17,18,19,20-tetranol-LXA4 methyl ester, prepared by total synthesis as in ref. 7 by Prof. N. A. Petasis and colleagues, Dept. of Chemistry, Univ. of Southern California) (10 μg) in 10 μl of acetone was applied to the inner side of right ears. Acetone alone was applied to the left ear as a vehicle control. Five min later, LTB4 (5S, 12R-dihydroxy-6,8,10,14-eicosatetraenoic acid; 1 μg) in 10 μl acetone was applied to both ears. Ear skin punch biopsies were collected for leukocyte MPO activity (Takano, T., Clish, C. B., Gronert, K., Petasis, N. A. and Serhan C. N. 1997. Neutrophil-mediated changes in vascular permeability are inhibited by topical application of aspirin-triggered 15-epi-lipoxin A4 and novel lipoxin B4 stable analogues. J. Clin. Invest. 101: 819-826).

BLTR [5] = molecular target: T1, BLTR; experiment: Intracellular Ca2+ mobilization in HEK293 cells transfected with pGL-CD11b-hBLTR; type: cell-based; set-up: expressed in transfected cells; host or cells: HEK293 (transient transfection with pGL-CD11b-hBLTR, SuperFect); details: LTB4 100 nM; transiently transfected HEK293 cells

In the case of CCCCC[C@H](O)/C=C/C=C\C=C\C=C\[C@@H](O)[C@@H](O)CCCC(=O)O (relative stereo) [LXA4, 5(S), 6(R), 15(S)-trihydroxy-7,9,13-trans-11-cis eicosatetraenoic acid], the “effect on LTB4-evoked extracellular acidification rate” value [1] is reported as “nor did LXA4 or its analogs affect LTB4-evoked extracellular acidification rate” and the “competition with [3H]-LTB4 binding” value (BLTR [2]) is reported as “did not compete with [^3H]-LTB4 binding”.
With COC(=O)CCC[C@H](O)[C@H](O)C=CC=CC=CC=C[C@@H](O)COc1ccc(F)cc1 [ATL, 15(R)-16-para-fluoro-phenoxy-17,18,19,20-tetranol-LXA4 methyl ester] the “PMN infiltration into lungs vs vehicle” value ([3]; 10 μg intravenous prior to ischemia-reperfusion, p=0.04, n=3) was “significantly diminished PMN infiltration into lungs” and the “inhibition of PMN infiltration (change)” value ([3]; intravenous prior to ischemia-reperfusion) was 40-60%.
For CCCCCC=CC[C@@H](O)C=CC=CC=C[C@@H](O)CCCC(=O)O [LTB4, 5S, 12R-dihydroxy-6,8,10,14-eicosatetraenoic acid, reference compound], the “increase in PMN infiltration into skin compared to vehicle control” value ([4]; hBLTR transgenic mice, n=10) was 7.4±0.9 fold, the “increase in PMN infiltration into skin compared to vehicle control” value ([4]; wt mice, n=7) was 3.2±0.5 fold and the “mobilization of intracellular Ca2+” value (BLTR [5]) was “intracellular Ca^2+ was mobilized”.
With COC(=O)CCC[C@H](O)[C@H](O)C=CC=CC=CC=C[C@H](O)COc1ccccc1 [LXA4 stable analog, 15(S)-16-phenoxy-17,18,19,20-tetranol-LXA4 methyl ester] the “number of PMN whose infiltration was inhibited, hBLTR transgenic relative to wt mice” value ([4]; MPO activities converted to total number of PMN, 10 μg topical) was 3 times, the “percent inhibition of LTB4-induced PMN infiltration” value ([4]; hBLTR transgenic mice) was ~45% and the “effect on PMN infiltration” value ([4]; hBLTR transgenic mice, 10 μg topical, representative data from n=3) was “clearly able to block PMN infiltration”. The “percent inhibition of LTB4-induced PMN infiltration” value ([4]; wt mice) was ~37%.
